Assay results published in ChEMBL document CHEMBL3232804, “Synthesis and evaluation of new diaryl ether and quinoline hybrids as potential antiplasmodial and antimicrobial agents” (Bioorg Med Chem Lett, 2014).
pIC50: −log10 of the molar value. In brackets after ≈: the same amount, converted by molar mass.

Experiments:
[1] = tested on: Klebsiella pneumoniae; assay: Antimicrobial activity against Klebsiella pneumoniae ATCC 27736 after 24 hrs by standard broth microdilution method; type: functional; settings: ATCC 27736, 24 h
[2] = tested on: Sporothrix schenckii; assay: Antifungal activity against Sporothrix schenckii clinical isolate after 72 to 96 hrs by standard broth microdilution method; type: functional
[3] = tested on: Plasmodium falciparum; assay: Antiplasmodial activity against chloroquine-sensitive Plasmodium falciparum 3D7 infected after 72 hrs by Malaria SYBR Green I-staining based fluorescence assay; type: functional, organism-based; settings: 3D7, 72 h
[4] = tested on: Pseudomonas aeruginosa; assay: Antimicrobial activity against Pseudomonas aeruginosa ATCC BAA-427 after 24 hrs by standard broth microdilution method; type: functional; settings: ATCC BAA-427, 24 h
[5] = tested on: Cryptococcus neoformans; assay: Antifungal activity against Cryptococcus neoformans clinical isolate after 24 to 48 hrs by standard broth microdilution method; type: functional
[6] = tested on: Aspergillus fumigatus; assay: Antifungal activity against Aspergillus fumigatus clinical isolate after 72 to 96 hrs by standard broth microdilution method; type: functional
[7] = tested on: Plasmodium falciparum; assay: Antiplasmodial activity against chloroquine-resistant Plasmodium falciparum K1 infected after 72 hrs by Malaria SYBR Green I-staining based fluorescence assay; type: functional, organism-based; settings: K1, 72 h
[8] = tested on: Escherichia coli; assay: Antimicrobial activity against Escherichia coli ATCC 9637 after 24 hrs by standard broth microdilution method; type: functional; settings: ATCC 9637, 24 h
[9] = tested on: Candida albicans; assay: Antifungal activity against Candida albicans clinical isolate after 24 to 48 hrs by standard broth microdilution method; type: functional
[10] = tested on: Trichophyton mentagrophytes; assay: Antifungal activity against Trichophyton mentagrophytes clinical isolate after 72 to 96 hrs by standard broth microdilution method; type: functional
[11] = tested on: Candida parapsilosis; assay: Antifungal activity against Candida parapsilosis ATCC […] after 72 to 96 hrs by standard broth microdilution method; type: functional; settings: Lodderomyces parapsilosis
[12] = tested on: Staphylococcus aureus; assay: Antimicrobial activity against Staphylococcus aureus ATCC 25923 after 24 hrs by standard broth microdilution method; type: functional; settings: ATCC 25923, 24 h
[13] = Selectivity index, ratio of IC50 for african green monkey Vero cells to IC50 for chloroquine-sensitive Plasmodium falciparum 3D7; type: toxicity, cell-based; settings: read-out: Ratio IC50

Row | Structure (SMILES) | MIC [1] [µg/mL] | MIC [2] [µg/mL] | pIC50 [3] | MIC [4] [µg/mL] | MIC [5] [µg/mL] | MIC [6] [µg/mL] | pIC50 [7] | MIC [8] [µg/mL] | MIC [9] [µg/mL] | MIC [10] [µg/mL] | MIC [11] [µg/mL] | MIC [12] [µg/mL] | selectivity ratio [13]
1 | Clc1cccc(/N=C(\NCCNc2ccnc3cc(Cl)ccc23)Nc2ccc(Oc3cc(Cl)ccc3Cl)cc2)c1 | > 50 | 3.12 (≈ 5.1 µM) | 7.20 | > 50 | 12.5 (≈ 20.4 µM) | 50 (≈ 81.8 µM) | < 6.09 | 6.25 (≈ 10.2 µM) | 3.12 (≈ 5.1 µM) | 6.25 (≈ 10.2 µM) | 25 (≈ 40.9 µM) | 12.5 (≈ 20.4 µM) | 53.2
2 | COc1ccc(Oc2ccc(N/C(=N/c3cccc(Cl)c3)NCCCNc3ccnc4cc(Cl)ccc34)cc2)cc1 | 12.5 (≈ 21.3 µM) | 6.25 (≈ 10.7 µM) | 7.30 | > 50 | 25 (≈ 42.6 µM) | 25 (≈ 42.6 µM) | 6.63 | 6.25 (≈ 10.7 µM) | 6.25 (≈ 10.7 µM) | 6.25 (≈ 10.7 µM) | 12.5 (≈ 21.3 µM) | 6.25 (≈ 10.7 µM) | 158
3 | COC(=O)/C(C)=C/c1ccc(Oc2ccccc2N/C(=N/c2ccccc2)NCCCCNc2ccnc3cc(Cl)ccc23)cc1 | > 50 | > 50 | 6.54 | > 50 | > 50 | > 50 | 6.85 | > 50 | > 50 | > 50 | > 50 | > 50 | 78
4 | Clc1cccc(/N=C(\NCCCCNc2ccnc3cc(Cl)ccc23)Nc2ccccc2Oc2cc(Cl)ccc2Cl)c1 | 12.5 (≈ 19.5 µM) | 25 (≈ 39.1 µM) | 6.83 | 50 (≈ 78.2 µM) | 50 (≈ 78.2 µM) | 50 (≈ 78.2 µM) | 6.36 | 12.5 (≈ 19.5 µM) | 25 (≈ 39.1 µM) | 25 (≈ 39.1 µM) | 25 (≈ 39.1 µM) | 1.56 (≈ 2.44 µM) | 7.7
5 | COC(=O)/C(C)=C/c1ccc(Oc2ccc(N/C(=N/c3ccc(Cl)cc3)NCCNc3ccnc4cc(Cl)ccc34)cc2)cc1 | 50 (≈ 78.1 µM) | 6.25 (≈ 9.76 µM) | 7.37 | > 50 | 6.25 (≈ 9.76 µM) | 25 (≈ 39 µM) | < 6.10 | 12.5 (≈ 19.5 µM) | 6.25 (≈ 9.76 µM) | 12.5 (≈ 19.5 µM) | 25 (≈ 39 µM) | 6.25 (≈ 9.76 µM) | 69.2
6 | Clc1ccc(Cl)c(Oc2ccccc2N/C(=N/c2ccccc2)NCCCCNc2ccnc3cc(Cl)ccc23)c1 | > 50 | 25 (≈ 41.3 µM) | 6.71 | > 50 | > 50 | > 50 | 7.03 | 25 (≈ 41.3 µM) | 50 (≈ 82.6 µM) | 50 (≈ 82.6 µM) | > 50 | 12.5 (≈ 20.7 µM) | 43.5
7 | COc1ccc(Oc2ccc(N/C(=N/c3cccc(Cl)c3)NCCNc3ccnc4cc(Cl)ccc34)cc2)cc1 | 12.5 (≈ 21.8 µM) | 12.5 (≈ 21.8 µM) | 7.05 | > 50 | > 50 | > 50 | 7.08 | 12.5 (≈ 21.8 µM) | 25 (≈ 43.7 µM) | 12.5 (≈ 21.8 µM) | > 50 | 12.5 (≈ 21.8 µM) | 91.3
8 | COc1ccc(Oc2ccc(N/C(=N/c3ccc(Cl)cc3)NCCCCNc3ccnc4cc(Cl)ccc34)cc2)cc1 | 25 (≈ 41.6 µM) | 12.5 (≈ 20.8 µM) | 7.47 | > 50 | 25 (≈ 41.6 µM) | 25 (≈ 41.6 µM) | 6.86 | 6.25 (≈ 10.4 µM) | 25 (≈ 41.6 µM) | 12.5 (≈ 20.8 µM) | 6.25 (≈ 10.4 µM) | 6.25 (≈ 10.4 µM) | 88.7
9 | COc1ccc(Oc2ccc(N/C(=N/c3ccccc3)NCCCNc3ccnc4cc(Cl)ccc34)cc2)cc1 | 12.5 (≈ 22.6 µM) | 12.5 (≈ 22.6 µM) | 7.44 | > 50 | 25 (≈ 45.3 µM) | 25 (≈ 45.3 µM) | 6.17 | 6.25 (≈ 11.3 µM) | 25 (≈ 45.3 µM) | 12.5 (≈ 22.6 µM) | 12.5 (≈ 22.6 µM) | 6.25 (≈ 11.3 µM) | 97.8
10 | COC(=O)/C(C)=C/c1ccc(Oc2ccc(N/C(=N/c3ccccc3)NCCCCNc3ccnc4cc(Cl)ccc34)cc2)cc1 | 50 (≈ 78.8 µM) | 25 (≈ 39.4 µM) | 7.02 | > 50 | 25 (≈ 39.4 µM) | > 50 | 7.12 | 25 (≈ 39.4 µM) | 25 (≈ 39.4 µM) | 25 (≈ 39.4 µM) | 25 (≈ 39.4 µM) | 50 (≈ 78.8 µM) | 91.8
11 | Clc1ccc(/N=C(\NCCCCNc2ccnc3cc(Cl)ccc23)Nc2ccc(Oc3cc(Cl)ccc3Cl)cc2)cc1 | 12.5 (≈ 19.5 µM) | 6.25 (≈ 9.77 µM) | 7.54 | > 50 | 12.5 (≈ 19.5 µM) | 25 (≈ 39.1 µM) | 6.68 | 6.25 (≈ 9.77 µM) | 12.5 (≈ 19.5 µM) | 12.5 (≈ 19.5 µM) | 12.5 (≈ 19.5 µM) | 6.25 (≈ 9.77 µM) | 756
12 | COC(=O)/C(C)=C/c1ccc(Oc2ccccc2N/C(=N/c2cccc(Cl)c2)NCCCNc2ccnc3cc(Cl)ccc23)cc1 | 3.12 (≈ 4.77 µM) | 50 (≈ 76.4 µM) | 7.69 | > 50 | > 50 | > 50 | 6.53 | 6.25 (≈ 9.55 µM) | 50 (≈ 76.4 µM) | 50 (≈ 76.4 µM) | > 50 | 3.12 (≈ 4.77 µM) | 368
13 | COc1ccc(Oc2ccccc2N/C(=N/c2cccc(Cl)c2)NCCNc2ccnc3cc(Cl)ccc23)cc1 | 12.5 (≈ 21.8 µM) | > 50 | 7.36 | > 50 | 12.5 (≈ 21.8 µM) | 12.5 (≈ 21.8 µM) | 6.70 | 6.25 (≈ 10.9 µM) | 6.25 (≈ 10.9 µM) | 12.5 (≈ 21.8 µM) | > 50 | 6.25 (≈ 10.9 µM) | 208
14 | Clc1ccc(Cl)c(Oc2ccc(N/C(=N/c3ccccc3)NCCCCNc3ccnc4cc(Cl)ccc34)cc2)c1 | 25 (≈ 41.3 µM) | 25 (≈ 41.3 µM) | 6.51 | > 50 | 25 (≈ 41.3 µM) | 25 (≈ 41.3 µM) | < 6.08 | 12.5 (≈ 20.7 µM) | 12.5 (≈ 20.7 µM) | 25 (≈ 41.3 µM) | 12.5 (≈ 20.7 µM) | 12.5 (≈ 20.7 µM) | 29.9
15 | Clc1ccc(/N=C(\NCCNc2ccnc3cc(Cl)ccc23)Nc2ccc(Oc3cc(Cl)ccc3Cl)cc2)cc1 | > 50 | 3.12 (≈ 5.1 µM) | 7.36 | > 50 | 6.25 (≈ 10.2 µM) | 6.25 (≈ 10.2 µM) | 7.27 | 6.25 (≈ 10.2 µM) | 6.25 (≈ 10.2 µM) | 6.25 (≈ 10.2 µM) | 12.5 (≈ 20.4 µM) | 25 (≈ 40.9 µM) | 189
16 | COC(=O)/C(C)=C/c1ccc(Oc2ccc(N/C(=N/c3ccccc3)NCCNc3ccnc4cc(Cl)ccc34)cc2)cc1 | > 50 | 12.5 (≈ 20.6 µM) | 7.15 | > 50 | 12.5 (≈ 20.6 µM) | 25 (≈ 41.2 µM) | 7.18 | 12.5 (≈ 20.6 µM) | 1.52 (≈ 2.51 µM) | 6.25 (≈ 10.3 µM) | 12.5 (≈ 20.6 µM) | 25 (≈ 41.2 µM) | 158
17 | Clc1cccc(/N=C(\NCCCNc2ccnc3cc(Cl)ccc23)Nc2ccc(Oc3cc(Cl)ccc3Cl)cc2)c1 | > 50 | 3.12 (≈ 4.99 µM) | 7.12 | > 50 | 6.25 (≈ 9.99 µM) | 12.5 (≈ 20 µM) | < 6.10 | 6.25 (≈ 9.99 µM) | 3.12 (≈ 4.99 µM) | 6.25 (≈ 9.99 µM) | 25 (≈ 40 µM) | 12.5 (≈ 20 µM) | 44.5
18 | Clc1cccc(/N=C(\NCCCNc2ccnc3cc(Cl)ccc23)Nc2ccccc2Oc2cc(Cl)ccc2Cl)c1 | > 50 | 50 (≈ 80 µM) | 7.06 | > 50 | 50 (≈ 80 µM) | > 50 | 7.11 | 6.25 (≈ 9.99 µM) | 25 (≈ 40 µM) | 50 (≈ 80 µM) | 50 (≈ 80 µM) | 1.56 (≈ 2.49 µM) | 18.7
19 | Clc1ccc(Cl)c(Oc2ccc(N/C(=N/c3ccccc3)NCCCNc3ccnc4cc(Cl)ccc34)cc2)c1 | 25 (≈ 42.3 µM) | 3.12 (≈ 5.28 µM) | 7.64 | > 50 | 6.25 (≈ 10.6 µM) | 6.25 (≈ 10.6 µM) | < 6.07 | 3.12 (≈ 5.28 µM) | 12.5 (≈ 21.2 µM) | 6.25 (≈ 10.6 µM) | 6.25 (≈ 10.6 µM) | 12.5 (≈ 21.2 µM) | 164
20 | COC(=O)/C(C)=C/c1ccc(Oc2ccccc2N/C(=N/c2ccc(Cl)cc2)NCCNc2ccnc3cc(Cl)ccc23)cc1 | > 50 | 50 (≈ 78.1 µM) | 7.29 | > 50 | 50 (≈ 78.1 µM) | > 50 | 6.38 | 50 (≈ 78.1 µM) | 50 (≈ 78.1 µM) | 50 (≈ 78.1 µM) | > 50 | 1.56 (≈ 2.44 µM) | 46.2
21 | COC(=O)/C(C)=C/c1ccc(Oc2ccccc2N/C(=N/c2ccccc2)NCCCNc2ccnc3cc(Cl)ccc23)cc1 | > 50 | > 50 | 6.76 | > 50 | > 50 | > 50 | 6.79 | > 50 | > 50 | > 50 | > 50 | > 50 | 37.2
